From publication PMC6163981, “Novel and Selective Rhipicephalus microplus Triosephosphate Isomerase Inhibitors with Acaricidal Activity” (Veterinary Sciences, 2018)
Values joined by “and” are separate entries in the source; they are usually repeats but may differ in a detail not shown here. Equal values may be shown once. “Also recorded” adds a separate entry of the source. Read-outs that look alike come from different tables or passages of the source.

What was measured:
[1] = target: RmTIM (TIM from R. microplus) (Rhipicephalus microplus, UniProt A8B3A8); assay: biochemical
mice = conditions: cited from earlier work
BME26 embryonic cells [2] = tested on: BME26 embryonic cells; parameters: method as in PMID 24956999, PMID 22036897; conditions: widely used acaricide, comparison; cited from earlier work
BME26 embryonic cells [3] = assay: MTT viability assay on BME26 embryonic cells; format: cell-based, Rhipicephalus microplus; conditions: for IC50 / viability at 100 µM: Rhipicephalus microplus, 24 h, BME26, MTT; for IC50: read-out: IC50 in BME26 cells (In vitro anti-R. microplus); for viability at 100 µM: read-out: cell viability at 100 µM
[4] = tested on: mammalian TIMs (rabbit and human); assay: Mammalian TIM inhibition (rabbit and human, summarised); format: biochemical; conditions: 100 µM
mice (strain B6D2F1) = conditions: male, B6D2F1, mouse, in vivo
[5] = target: T1, Homo sapiens TIM (HsTIM, HmTIM [sic] in Table 1) (Homo sapiens, UniProt P60174); assay: Human TIM inhibition (selectivity); format: biochemical
T1 construct: made in house; host or cells: E. coli

Rabbit TIM (RbTIM) = Rabbit TIM (RbTIM) (Oryctolagus cuniculus, UniProt P00939); assay: Rabbit TIM inhibition (selectivity); format: biochemical
[6] = tested on: Trypanosoma cruzi TIM (TcTIM); conditions: previously obtained; cited from earlier work
[7] = parameters: method as in PMID 22803666; conditions: previous work; cited from earlier work

RmTIM (TIM from R. microplus), sequence (A8B3A8 1-249): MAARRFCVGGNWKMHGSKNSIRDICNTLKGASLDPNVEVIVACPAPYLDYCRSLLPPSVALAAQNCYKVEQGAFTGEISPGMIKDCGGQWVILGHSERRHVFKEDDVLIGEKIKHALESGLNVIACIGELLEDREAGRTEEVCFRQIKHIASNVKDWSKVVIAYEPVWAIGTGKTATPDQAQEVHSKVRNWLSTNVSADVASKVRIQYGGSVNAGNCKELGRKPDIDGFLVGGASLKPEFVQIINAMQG
Rabbit TIM (RbTIM), sequence (P00939 2-249 limits assumed): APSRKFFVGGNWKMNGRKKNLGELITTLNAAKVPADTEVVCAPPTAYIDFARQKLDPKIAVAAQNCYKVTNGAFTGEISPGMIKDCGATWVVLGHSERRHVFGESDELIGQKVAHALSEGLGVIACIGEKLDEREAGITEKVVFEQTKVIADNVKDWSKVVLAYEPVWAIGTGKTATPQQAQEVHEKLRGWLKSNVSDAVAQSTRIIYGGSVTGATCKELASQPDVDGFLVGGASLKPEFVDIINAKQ
T1 sequence (P60174 whole entry): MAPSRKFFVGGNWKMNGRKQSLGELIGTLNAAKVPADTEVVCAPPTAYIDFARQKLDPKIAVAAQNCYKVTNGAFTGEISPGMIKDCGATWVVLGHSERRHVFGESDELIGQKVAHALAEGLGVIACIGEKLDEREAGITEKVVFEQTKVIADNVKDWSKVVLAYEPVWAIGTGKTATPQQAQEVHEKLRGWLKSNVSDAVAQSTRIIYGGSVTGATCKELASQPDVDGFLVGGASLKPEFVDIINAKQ

Compound: O=C1C(=Cc2ccc([N+](=O)[O-])o2)C(=O)N(Cc2ccccc2)S(=O)(=O)N1Cc1ccccc1 [Compound 52]
- IC50 ([1]; read-out: IC50 (µM) RmTIM): 50 to 100 µM

Compound: N#Cc1nn(-c2c(Cl)cc(C(F)(F)F)cc2Cl)c(N)c1[S+]([O-])C(F)(F)F (centres unmarked) [fipronil]
- acute oral LD50 (mice): 91 mg/kg

Compound: C=CCNC(=S)N/N=C/c1ccc2c(c1)[n+]([O-])c(C)c(C)[n+]2[O-] [Compound 179]
- IC50 ([1]; read-out: IC50 (µM) RmTIM): ~100 µM

Compound: C=CCn1c(-c2ccc(OC)cc2)cs/c1=N/N=C/c1ccc([N+](=O)[O-])s1 [Compound 70]
- IC50 ([1]; read-out: IC50 (µM) RmTIM): ~100 µM

Compound: O=S(=O)(NCCc1ccccc1)NCCc1ccccc1 [Compound 62]
- IC50 ([1]; IC50 (µM) RmTIM): 50 to 100 µM

Compound: ivermectin
- IC50 (BME26 embryonic cells [2]): 3 µM

Compound: O=C(N/N=C/c1c(-c2ccccc2)no[n+]1[O-])c1cnn(-c2ccccc2)c1 [Compound 134]
- IC50 ([1]; read-out: IC50 (µM) RmTIM): ~100 µM

Compound: O=C1C(=Cc2ccc([N+](=O)[O-])cc2)C(=O)N(Cc2ccccc2)S(=O)(=O)N1Cc1ccccc1 [Compound 50]
- IC50 (BME26 embryonic cells [3]): 71 ± 8 µM
- viability at 100 µM (BME26 embryonic cells [3]; 100 µM): 42%
- Mammalian Triosephosphate isomerase inhibition [4]: did not affect
- IC50 ([1]; read-out: IC50 (µM) RmTIM): ~50 µM and 50 µM
- Toxicology: LD50 (mice (strain B6D2F1)): 3 mmol/kg body weight in mice
- inhibition at 100 µM [5]: 0%
- inhibition at 100 µM (Rabbit TIM (RbTIM)): 0%

Compound: Clc1ccc(-c2csc(N/N=C/C=C/c3ccco3)n2)cc1 [Compound 81]
- IC50 ([1]; read-out: IC50 (µM) RmTIM): 50 to 100 µM

Compound: Cc1c(C=O)no[n+]1[O-] [Compound 136]
- IC50 ([1]; read-out: IC50 (µM) RmTIM): ~100 µM

Compound: Cc1ccc(-c2nsc(=O)[nH]2)cc1 [Compound 161]
- IC50 [6]: 4 µM
- penetration of biological membranes [7]: cannot penetrate biological membranes
- effect on BME26 cells (BME26 embryonic cells [3]; MTT, 100 µM): did not have any effect; also recorded: no activity
- viability at 100 µM (BME26 embryonic cells [3]; 100 µM): 100%
- IC50 ([1]; read-out: IC50 (µM) RmTIM): 25 ± 3 µM
- inhibition at 100 µM [5]: 28%
- % Inhibition at 100 µM HmTIM ([5]; 100 µM): slight inhibitory activity
- inhibition at 100 µM (Rabbit TIM (RbTIM)): 0%

Compound: Cc1c(CNc2ccc3ccccc3c2)no[n+]1[O-] [Compound 146]
- IC50 ([1]; read-out: IC50 (µM) RmTIM): ~100 µM

Compound: Cc1ccc(/C=C/C=N/N2CCN(C/C=C/c3ccccc3)CC2)o1 [Compound 222]
- IC50 ([1]; read-out: IC50 (µM) RmTIM): 50 to 100 µM

Compound: O=[N+]([O-])c1ccc(/C=C/C=N/NC(=S)Nc2ccccc2)o1 [Compound 99]
- IC50 ([1]; read-out: IC50 (µM) RmTIM): ~100 µM

Compound: CC1(C)[N+]([O-])=c2ccc(/C=C/c3ccccc3)cc2=[N+]1[O-] [Compound 39]
- IC50 ([1]; read-out: IC50 (µM) RmTIM): 50 to 100 µM

Compound: O=C(N/N=C/C=C/c1ccc([N+](=O)[O-])o1)Nc1ccc2ccccc2c1 [Compound 98]
- IC50 (BME26 embryonic cells [3]): 67 ± 4 µM
- viability at 100 µM (BME26 embryonic cells [3]; 100 µM): 40%
- Mammalian Triosephosphate isomerase inhibition [4]: did not affect
- IC50 ([1]; read-out: IC50 (µM) RmTIM): ~50 µM and 50 µM
- Toxicology: LD50 (mice (strain B6D2F1)): 3 mmol/kg body weight in mice
- inhibition at 100 µM [5]: 14%
- inhibition at 100 µM (Rabbit TIM (RbTIM)): 21%
